# Results from patent US11447495B2, “Substituted benzo[f]imidazo[1,5-a][1,4]diazepines as GABA(a) receptor modulators” (priority 2016, dated 2022).
# Assays:
# [1] = test system: CD4+ T-cells isolated from ova s/c BALB/c mice spleen; test: Automated patch clamp of CD4+ T cells with 600 nM GABA; format: cell-based, mouse; settings: increasing concentrations of compound, 3 seconds
# Procedure: Direct interaction between compounds and CD4^+ T cells may be investigated by electrophysiology. Therefore, CD4^+ T cells may be isolated from the spleen of asthmatic mice and treated with compounds during an automated patch clamp experiment.
# To determine the effect of compounds on lymphocytes, CD4^+ T cells from Ova S/C mice were isolated and their interaction with compounds was measured by automated patch clamp. Splenocytes from ova s/c BALB/c mice were prepared following BD Biosciences instructions for preparation of murine splenocytes and red blood cell lysed using BD Pharm Lyse™ lysing solution (BD Biosciences, San Jose, Calif.). Cells were maintained in suspension in RPMI 1640 medium with L-glutamine (Thermo Fisher Scientific Inc., Rockford, Ill.) supplemented with 10% (v/v) fetal bovine serum, 10 μM 2-mercaptoethanol and 1% penicillin/streptomycin in the presence or absence of 100 μg/mL ovalbumin. The cells were maintained in 5% CO2, 95% humidified air at 37° C. for 48 hours. The IonFlux plate layout consists of units of 12 wells: two wells contain intracellular solution (ICS containing […], 1 mM CaCl2, 1 mM MgCl2, 11 mM EGTA, 10 mM HEPES, pH 7.2 with CsOH), one contains cells diluted in extracellular solution (ECS containing 140 mM NaCl, 5 mM […] KCl, 2 mM CaCl2, 1 mM MgCl2, 5 mM D-glucose monohydrate, and 10 mM HEPES, pH 7.4 with NaOH), eight contain the compounds of interest diluted in ECS, and one well is for waste collection. Cells are captured from suspension by applying suction to microscopic channels in ensemble recording arrays. Once the array is fully occupied, the applied suction breaks the membranes of captured cells, which establishes whole cell voltage clamp. For compound applications, pressure is applied to the appropriate compound wells, which introduces the compound into the extracellular solution rapidly flowing over the cells. For recording GABAAR induced currents, cell arrays were voltage clamped at a hyperpolarizing holding potential of −50 mV. Prior to use on the automated patch clamp, cells were centrifuged at 380 g for 5 minutes and resuspended gently in ECS. This was repeated two more times before the cells were dispensed into the plate. GABA and muscimol were diluted to appropriate concentrations in ECS to appropriate concentrations before application and data recorded. […] The concentration-dependent current responses of CD4+ T-cells in the presence of 600 nM GABA and increasing concentration of compounds were carried out with an N of 16 and normalized to the current response of 600 nM GABA.
# mucin = test: Mucin production in airway epithelium, morphometric quantification; format: in vivo, Balb/c mice; settings: 100 mg/kg twice for five days
# Procedure: Pharmacodynamic effects of compounds in respect to mucus production were investigated after the AHR measurement by harvesting the lungs of treated and non-treated Ova S/C mice followed by formalin fixation and paraffin embedding. Sections were prepared from one lobe (including large and small airways) and processed for standard H&E (for general histopathology and inflammation) and PAS (for mucous cell; as cells/mm of basement membrane) staining. FIGS. 10A-10B show compound effects on mucin production: (A) Morphometric quantification of mucin volume density and (B) representative images of mucin (red) in the airway epithelium (green) with periodic acid fluorescent Schiff's stain. Balb/c mice were administered compounds at 100 mg/kg twice for five days. Data represent mean±SEM from 5-7 mice in each group. Scale bar represents 100 μm.
# HEPG2 = test: Cytotoxicity, liver cells; format: cell-based, human; settings: human, HepG2 liver cells
# [2] = Microsomal stability, mouse liver microsomes; format: in vitro ADME; settings: 10 μM compound
# Procedure: The metabolic stability of compounds in vivo can be estimated with the stability of compounds in the presence of liver microsomes. Therefore, 4 μL of 1 mM DMSO solution of test compound at a final concentration of 10 μM were preincubated at 37° C. for 5 minutes on a digital heating shaking dry bath (Fischer scientific, Pittsburgh, Pa.) in a mixture containing 282 μL of water, 80 μL of phosphate buffer (0.5 M, pH 7.4) 20 μL of NADPH Regenerating System Solution A (BD Bioscience, San Jose, Calif.) and 4 μL of NADPH Regenerating System Solution B (BD Bioscience, San Jose, Calif.) in a total volume of 391.2 μL. Following preincubation, the reaction was initiated by addition of 8.8 μL of either human liver microsomes (BD Gentest, San Jose, Calif.) or mouse liver microsomes (Life technologies, Rockford, Ill.) at a protein concentration of 0.5 mg/mL. Aliquots of 50 μL were taken at time intervals of 0 (without microsomes), 10, 20, 30, 40, 50 and 60 minutes. Each aliquot was added to 100 μL of cold acetonitrile solution containing 1 μM of verapamil HCL as internal standard. This was followed by sonication for 10 seconds and centrifugation at 10,000 rpm for 5 minutes. 100 μL of the supernatant was transferred into Spin-X HPLC filter tubes (Corning Incorporated, NY) and centrifuged at 13,000 rpm for 5 minutes. The filtrate was diluted 100-fold and subsequently analyzed by LC-MS/MS with Shimadzu LCMS 8040, (Shimadzu Scientific Instruments, Columbia, Md.). The ratio of the peak areas of the internal standard and test compound was calculated for every time point and the natural log of the ratio were plotted against time to determine the linear slope (k). The metabolic rate (k*C0/C), half-life (0.693/k), and […] (V*k) were calculated, where k is the slope, C0 is the initial concentration of test compound, C is the concentration of microsomes, and V is the volume of incubation in μL per microsomal protein in mg. All experiments were repeated two time in triplicates.
Structure (SMILES),GABA-induced membrane current of CD4+ T-cells [1],production of mucin (mucin),LD50 HEPG2 (Liver) (HEPG2),MLM % remaining after 60 min [2]
"C[C@H]1N=C(c2ccccc2F)c2cc(Br)ccc2-n2cnc(C(=O)O)c21 [GL-II-93, (R)-8-bromo-6-(2-fluorophenyl)-4-methyl-4H-benzo[f]imidazo[1,5-a][1,4]diazepine-3-carboxylic acid]",evoked a very pronounced GABA-induced transmembrane current,did not change the production of mucin,>400 µM,
"CCOC(=O)c1ncn2c1[C@@H]1CCCN1C(=O)c1cc(O)ccc1-2 [RJ-02-50, ethyl (S)-7-hydroxy-9-oxo-11,12,13,13a-tetrahydro-9H-benzo[e]imidazo[5,1-c]pyrrolo[1,2-a][1,4]diazepine-1-carboxylate]",potentiated the GABA-induced membrane current more than SH-053-2F′F—R-CH3-Acid,did not change the production of mucin,>400 µM,91.1 ± 0.1%
"O=C1c2cc(O)ccc2-n2cnc(-c3cnco3)c2[C@@H]2CCCN12 [RJ-03-30, (S)-7-hydroxy-1-(oxazol-5-yl)-11,12,13,13a-tetrahydro-9H-benzo[e]imidazo[5,1-c]pyrrolo[1,2-a][1,4]diazepin-9-one]",evoked a very pronounced GABA-induced transmembrane current,,>400 µM,80.0 ± 0.3%
"C#Cc1ccc2c(c1)C(c1ccccc1F)=N[C@H](C)c1c(C(=O)O)ncn1-2 [SH-053-2′F-R-CH3-Acid, (R)-8-ethynyl-6-(2-fluorophenyl)-4-methyl-4H-benzo[f]imidazo[1,5-a][1,4]diazepine-3-carboxylic acid]",RJ-02-50 potentiated the GABA-induced membrane current more than SH-053-2F′F—R-CH3-Acid,did not change the production of mucin,>400 µM,89.0 ± 0.3%
